Source: ChEMBL document CHEMBL5512677, “Site-Specific Antimicrobial Activity of a Dual-Responsive Ciprofloxacin Prodrug” (J Med Chem, 2024)
Converted amounts (≈) assume the structure as drawn. The source made the active and inactive calls. The rule behind the calls is not given here.

Columns and labels:
[1] = test system: Escherichia coli; assay: Antibacterial activity against Escherichia coli HB101 assessed as reduction in bacterial growth by measuring minimum inhibitory concentration incubated for 16 to 20 hrs by serial dilution method; assay type: functional; settings: time 16-20 hrs
[2] = test system: Escherichia coli; assay: Antibacterial activity against Escherichia coli E38 infected in female Swiss Webster mouse skin abscess model assessed as log reduction in bacterial load at 20 mg/kg, sc measured after 3 days relative to control; assay type: functional; settings: time 3 day
[3] = test system: Escherichia coli; assay: Antibacterial activity against Escherichia coli E38 harboring high NTR expression and H2S assessed as reduction in bacterial survival incubated for 16 hrs by spectrometric analysis; assay type: functional, organism-based
[4] = test system: Escherichia coli; assay: Antibacterial activity against Escherichia coli E38 assessed as reduction in bacterial growth pre-triggered with nitroreductase and H2S for 1 hr followed by bacterial infection and measured after 16 hrs by spectrometer; assay type: functional; settings: time 17 hrs
[5] = Prodrug activation in phosphate buffer saline assessed as Escherichia coli nitroreductase mediated ciprofloxacin metabolite formation by measuring retention time measured after 180 mins in presence of NADH by HPLC analysis; assay type: ADME; settings: isolated protein, 3 h
[6] = test system: Escherichia coli; assay: Antibacterial activity against Escherichia coli E38 assessed as reduction in bacterial growth pre-triggered with H2S for 1 hr followed by bacterial infection and measured after 16 hrs by spectrometer; assay type: functional; settings: time 17 hrs
[7] = test system: Staphylococcus aureus; assay: Antibacterial activity against Staphylococcus aureus BB255 assessed as reduction in bacterial growth by measuring minimum inhibitory concentration incubated for 16 to 20 hrs by serial dilution method; assay type: functional; settings: time 16-20 hrs
[8] = test system: Escherichia coli; assay: Antibacterial activity against Escherichia coli E38 assessed as reduction in bacterial survival rate pre-triggered with nitroreductase for 1 hr followed by bacterial infection and measured after 16 hrs by spectrometer; assay type: functional, organism-based; settings: time 17.0 hrs
[9] = Prodrug activation in phosphate buffer saline assessed as Escherichia coli nitroreductase mediated ciprofloxacin metabolite formation measured after 120 mins in presence of NADH by HPLC analysis; assay type: ADME; settings: isolated protein, 2 h
[10] = test system: Escherichia coli; assay: Antibacterial activity against Escherichia coli HB101 assessed as reduction in bacterial growth by measuring minimum bactericidal concentration incubated for 16 to 20 hrs by serial dilution method; assay type: functional; settings: time 16-20 hrs
[11] = test system: Escherichia coli; assay: Antibacterial activity against Escherichia coli E38 assessed as reduction in bacterial growth by measuring minimum inhibitory concentration incubated for 16 to 20 hrs by serial dilution method; assay type: functional; settings: time 16-20 hrs
[12] = test system: Escherichia coli; assay: Antibacterial activity against Escherichia coli HB101 at 0.5 to 2 times MIC measured after 30 days by broth microdilution method; assay type: functional, organism-based; settings: time 30.0 day
[13] = test system: Escherichia coli; assay: Antibacterial activity against Escherichia coli E38 assessed as reduction in bacterial growth pre-triggered with nitroreductase for 1 hr followed by bacterial infection and measured after 16 hrs by spectrometer; assay type: functional; settings: time 17 hrs
[14] = test system: Escherichia coli; assay: Antibacterial activity against Escherichia coli E38 assessed as reduction in bacterial growth by measuring minimum bactericidal concentration incubated for 16 to 20 hrs by serial dilution method; assay type: functional; settings: time 16-20 hrs
[15] = Retention time of the compound by HPLC analysis; assay type: physicochemical
[16] = test system: Staphylococcus aureus; assay: Antibacterial activity against Staphylococcus aureus BB255 assessed as reduction in bacterial growth by measuring minimum bactericidal concentration incubated for 16 to 20 hrs by serial dilution method; assay type: functional; settings: time 16-20 hrs
[17] = test system: Escherichia coli; assay: Antibacterial activity against Escherichia coli E38 assessed as reduction in bacterial survival rate pre-triggered with nitroreductase and NaSH for 1 hr followed by bacterial infection and measured after 16 hrs by spectrometer; assay type: functional, organism-based; settings: time 17.0 hrs
[18] = test system: Escherichia coli; assay: Antibacterial activity against Escherichia coli E38 assessed as reduction in bacterial survival rate by measuring fold reduction in MIC pre-triggered with H2S for 1 hr followed by bacterial infection and measured after 16 hrs by spectrometer; assay type: functional; settings: time 17 hrs
[19] = test system: Escherichia coli; assay: Antibacterial activity against Escherichia coli HB101 at 0.5 to 2 times MIC measured after 27 days by broth microdilution method; assay type: functional, organism-based; settings: time 27.0 day
[20] = test system: Escherichia coli; assay: Antibacterial activity against Escherichia coli E38 assessed as reduction in bacterial survival rate pre-triggered with NaSH for 1 hr followed by bacterial infection and measured after 16 hrs by spectrometer; assay type: functional, organism-based; settings: time 17.0 hrs
[21] = Prodrug activation in phosphate buffer saline assessed as Escherichia coli nitroreductase mediated ciprofloxacin metabolite formation measured upto 60 mins in presence of NADH by HPLC analysis; assay type: ADME; settings: isolated protein, 1 h
[22] = Prodrug activation in phosphate buffer saline assessed as Escherichia coli nitroreductase mediated ciprofloxacin metabolite formation measured after 5 mins in presence of NADH by HPLC analysis; assay type: ADME; settings: isolated protein
[23] = Prodrug activation in phosphate buffer saline assessed as Escherichia coli nitroreductase mediated ciprofloxacin metabolite formation measured after 60 mins in presence of NADH by HPLC analysis; assay type: ADME; settings: isolated protein, 1 h
[24] = test system: Escherichia coli; assay: Antibacterial activity against Escherichia coli E38 assessed as reduction in bacterial survival rate by measuring fold reduction in MIC pre-triggered with nitroreductase for 1 hr followed by bacterial infection and measured after 16 hrs by spectrometer; assay type: functional; settings: time 17 hrs
[25] = Prodrug activation in phosphate buffer saline assessed as Escherichia coli nitroreductase mediated intermediate formation measured after 60 mins in presence of NADH and 10 ug/ml of NTR by HPLC analysis; settings: isolated protein, 1 h
[26] = test system: Escherichia coli; assay: Antibacterial activity against Escherichia coli E38 infected in female Swiss Webster mouse skin abscess model assessed as reduction in bacterial load at 20 mg/kg, sc measured after 3 days; assay type: functional, organism-based; settings: time 3.0 day

## [N-]=[N+]=Nc1ccc(COC(=O)N2CCN(c3cc4c(cc3F)c(=O)c(C(=O)OCc3ccc([N+](=O)[O-])cc3)cn4C3CC3)CC2)cc1
[1]
  MIC: 32 mg/L (≈ 49.9 µM)
[2]
  log(activity): 2
[3]
  Activity: inactive
[4]
  MIC: 0.25 mg/L (≈ 0.39 µM)
[5]
  Retention_time: 2.2 min
[6]
  MIC: 2 mg/L (≈ 3.12 µM)
[7]
  MIC: > 128 mg/L
[8]
  Activity: inactive
[9]
  Drug metabolism: Metabolite_Detected
[10]
  MBC: 32 mg/L (≈ 49.9 µM)
[11]
  MIC: > 16 mg/L
[12]
  Activity: Active
[13]
  MIC: > 16 mg/L
[14]
  MBC: > 128 mg/L
[15]
  Retention_time: 15.2 min
[16]
  MBC: > 128 mg/L
[17]
  Activity: Active

## [N-]=[N+]=Nc1ccc(COC(=O)N2CCN(c3cc4c(cc3F)c(=O)c(C(=O)O)cn4C3CC3)CC2)cc1
[1]
  MIC: 0.5 mg/L (≈ 0.987 µM)
[2]
  log(activity): 2
[3]
  Activity: inactive
[18]
  fold change (FC): 16
[19]
  Activity: inactive
[6]
  MIC: 0.063 mg/L (≈ 0.124 µM)
[20]
  Activity: Active
[7]
  MIC: 4 mg/L (≈ 7.9 µM)
[10]
  MBC: 0.5 mg/L (≈ 0.987 µM)
[11]
  MIC: 1 mg/L (≈ 1.97 µM)
[14]
  MBC: 2 mg/L (≈ 3.95 µM)
[15]
  Retention_time: 12.4 min
[16]
  MBC: > 128 mg/L

## O=C(OCc1ccc([N+](=O)[O-])cc1)c1cn(C2CC2)c2cc(N3CCNCC3)c(F)cc2c1=O
[1]
  MIC: 0.5 mg/L (≈ 1.07 µM)
[2]
  log(activity): 2
[3]
  Activity: inactive
[7]
  MIC: 16 mg/L (≈ 34.3 µM)
[21]
  Drug metabolism: Metabolite_Detected
[22]
  Drug metabolism: Metabolite_Detected
[8]
  Activity: Active
[10]
  MBC: 1 mg/L (≈ 2.14 µM)
[11]
  MIC: 1 mg/L (≈ 2.14 µM)
[12]
  Activity: Active
[23]
  Drug metabolism: Metabolite_Notdetected
[24]
  fold change (FC): 16
[13]
  MIC: 0.063 mg/L (≈ 0.135 µM)
[14]
  MBC: 2 mg/L (≈ 4.29 µM)
[15]
  Retention_time: 4.7 min
[16]
  MBC: > 128 mg/L
[25]
  Drug metabolism: Metabolite_Notdetected

## C[C@H](NC(=O)c1cn(C2CC2)c2cc(N3CCNCC3)c(F)cc2c1=O)c1ccc([N+](=O)[O-])cc1
[1]
  MIC: 1 mg/L (≈ 2.09 µM)
[26]
  Activity: Active
[3]
  Activity: inactive
[4]
  MIC: 4 mg/L (≈ 8.34 µM)
[6]
  MIC: 4 mg/L (≈ 8.34 µM)
[20]
  Activity: inactive
[21]
  Drug metabolism: Metabolite_Notdetected
[8]
  Activity: inactive
[10]
  MBC: 1 mg/L (≈ 2.09 µM)
[11]
  MIC: 4 mg/L (≈ 8.34 µM)
[13]
  MIC: 4 mg/L (≈ 8.34 µM)
[14]
  MBC: 4 mg/L (≈ 8.34 µM)
[17]
  Activity: inactive

## O=C(O)c1cn(C2CC2)c2cc(N3CCNCC3)c(F)cc2c1=O [CIPROFLOXACIN]
[7]
  MIC: 0.25 mg/L (≈ 0.754 µM)
[8]
  Activity: Active
[10]
  MBC: 0.004 mg/L (≈ 0.0121 µM)
[14]
  MBC: 0.015 mg/L (≈ 0.0453 µM)
[16]
  MBC: 0.5 mg/L (≈ 1.51 µM)
